What was measured:
[1] = MTT cytotoxicity assay, MCF-10A; format: cell-based, human; conditions: human, MCF-10A cells, 48 h exposure, mean ± SD of three independent experiments
Procedure: (§1) These phomoxanthone compounds (1–8) were evaluated for their cyctotoxic activity in vitro against four human cancer cell lines including human breast MDA-MB-435, human colon HCT-116, human lung Calu-3 and human liver Huh7, compared with their effects on the immortalized human breast epithelial cell line MCF-10A by MTT assay using epirubicin (an anticancer drug used widely in the clinic) as positive control.
(§2) MDA-MB-435, HCT-116, Calu-3 and Huh7 were cultured in Dulbecco’s modification Eagle’s medium (DMEM, Invitrogen, Carlsbad, CA, USA) supplemented with 10% fetal bovine serum (FBS, Hyclone, Logan, UT, USA), 2 mM L-glutamine, 100 μg/mL streptomycin and 100 U/mL penicillin (Invitrogen, Carlsbad, CA, USA). MCF-10A cells were cultured in keratinocyte serum free medium (KSFM) supplemented with 0.1–0.2 ng/mL human recombinant epidermal growth factor and 20–30 μg/mL bovine pituitary extract (Invitrogen, Carlsbad, CA, USA). The cells were incubated at 37 °C in a humidified atmosphere with 5% CO2.
(§3) Cells were harvested during logarithmic growth phase and seeded in 96-well plates at a density of 1 × 10^4 cells/mL, and cultured at 37 °C in a humidified incubator (5% CO2) for 24 h, followed by exposure to various concentrations of compounds tested for 48 h. Subsequently 20 μL of MTT (Genview, Houston, TX, USA) solution (5 mg/mL) was added to each well and mixed, the cells were then incubated for an additional 4 h. Culture supernatant was removed using the micropipette, 150 μL of DMSO (Sangon Biotech, Shanghai, China) was added to each well to fully dissolve the MTT-formazan crystals. Cell growth inhibition was determined by measuring the absorbance (Abs) at λ = 570 nm using a microplate reader and calculated according to the following equation: Growth inhibition = (1 − OD of treated cells/OD of control cells) × 100%
(§4) The half maximal inhibitory concentrations (IC50) were obtained from linear regression analysis of the concentration-response curves plotted for each tested compound.

[2] = tested on: MCF-10A immortalized human breast epithelial cell line; experiment: MTT cytotoxicity assay, MCF-10A; format: cell-based; conditions: MCF-10A
Procedure: as §1, §2, §3, §4

[3] = tested on: Huh7 human liver cancer cell line; experiment: MTT cytotoxicity assay, Huh7; format: cell-based; conditions: Huh-7, 48 h exposure, mean ± SD of three independent experiments
Procedure: as §1, §2, §3, §4

[4] = tested on: MDA-MB-435 human breast cancer cell line; experiment: MTT cytotoxicity assay, MDA-MB-435; format: cell-based; conditions: mean ± SD of three independent experiments
Procedure: as §1, §2, §3, §4

[5] = tested on: four human cancer cell lines (MDA-MB-435, HCT-116, Calu-3, Huh7); experiment: MTT cytotoxicity assay, tested cancer cell lines taken together; format: cell-based; conditions: for cytotoxic activities against tested cancer cell lines (in words): MDA-MB-435, HCT-116, Calu-3, Huh7
Procedure: as §1, §2, §3, §4

[6] = tested on: Calu-3 human lung cancer cell line; experiment: MTT cytotoxicity assay, Calu-3; format: cell-based; conditions: mean ± SD of three independent experiments
Procedure: as §1, §2, §3, §4

[7] = tested on: HCT-116 human colon cancer cell line; experiment: MTT cytotoxicity assay, HCT-116; format: cell-based; conditions: mean ± SD of three independent experiments
Procedure: as §1, §2, §3, §4

HCT-116 (colon tumor) = tested on: HCT-116 (colon tumor); parameters: method as in PMID 11520215; conditions: cited from earlier work
A549 (lung tumor) = tested on: A549 (lung tumor); parameters: method as in PMID 11520215; conditions: cited from earlier work
[8] = Homo sapiens, MDA-MB-435, 48 h, 48 h exposure
[9] = Homo sapiens, Calu-3, 48 h, 48 h exposure
[10] = Homo sapiens, HCT-116, 48 h, 48 h exposure
[11] = Homo sapiens, Calu-3, 48 h exposure
[12] = Homo sapiens, HCT-116, 48 h exposure

Row | Compound | IC50 at 48 h [1] [µM] | cytotoxic effect on the immortalized human breast epithelial cell line (in words) [2] | IC50 [3] [µM] | IC50 [4, 8] [µM] | cytotoxic activities against tested cancer cell lines (in words) ([5]; MTT) | IC50 [6, 9] [µM] | IC50 [7, 10] [µM] | melting point [°C] | IC50 ([4]; Homo sapiens, MDA-MB-435, 48 h exposure) [µM] | IC50 [6, 11] [µM] | IC50 [7, 12] [µM] | cytotoxic activity against HCT-116 compared with dicerandrol B (in words) (HCT-116 (colon tumor)) | IC50 ([5]; Homo sapiens, summary statement of the abstract, cell lines not specified, read-out: IC50 against tested cancer cell lines) [µM] | cytotoxic activity against A549 compared with dicerandrol B (in words) (A549 (lung tumor)) | IC50 ([4]; 48 h exposure) [µM] | anticancer activities against MDA-MB-435, HCT-116 and Calu-3 (in words) ([5]; MTT, MDA-MB-435, HCT-116, Calu-3) | IC50 ([6]; 48 h exposure) [µM] | IC50 ([7]; 48 h exposure) [µM]
1 | CC(=O)OCC1(C2OC(=O)CC2C)CC(=O)c2c(O)ccc(-c3ccc4c(c3O)C(=O)C3=C(O)CC(C)C(OC(C)=O)C3(CO)O4)c2O1 (stereo not drawn) [Compound 1, Phomolactonexanthone A] | > 50 | no cytotoxic effect | > 50 | > 50 | weak/no cytotoxic activities | 43.5 ± 2.51 | > 50 | – | – | – | – | – | – | – | – | – | – | –
2 | CC(=O)OCC1(C2OC(=O)CC2C)CC(=O)c2c(ccc(-c3ccc4c(c3O)C(=O)C3=C(O)CC(C)C(OC(C)=O)C3(CO)O4)c2O)O1 (stereo not drawn) [Compound 2, Phomolactonexanthone B] | > 50 | no cytotoxic effect | > 50 | – | weak/no cytotoxic activities | – | – | 101.6 to 102.4 | > 50 | > 50 | > 50 | – | – | – | – | – | – | –
3 | CC(=O)O[C@@H]1[C@H](C)CC(O)=C2C(=O)c3c(O)ccc(-c4ccc(O)c5c4O[C@@]4(CO)C(=C(O)C[C@@H](C)[C@H]4OC(C)=O)C5=O)c3O[C@@]21CO [Compound 3, Deacetylphomoxanthone C] | > 50 | no cytotoxic effect | > 50 | > 50 | weak/no cytotoxic activities | 43.4 ± 2.09 | 44.1 ± 3.29 | – | – | – | – | – | – | – | – | – | – | –
4 | CC(=O)O[C@@H]1[C@H](C)CC(O)=C2C(=O)c3c(ccc(-c4ccc5c(c4O)C(=O)C4=C(O)C[C@@H](C)[C@@H](OC(C)=O)[C@@]4(CO)O5)c3O)O[C@@]21CO [Compound 4, dicerandrol A] | 28.3 ± 3.57 | displayed cytotoxic effect | 4.19 ± 0.08 | 3.03 ± 0.12 | significant cytotoxic activities | 1.76 ± 0.02 | 2.64 ± 0.03 | – | – | – | – | less cytotoxic activities than dicerandrol B | < 10 | less cytotoxic activities than dicerandrol B | – | – | – | –
5 | CC(=O)OC[C@]12Oc3ccc(-c4ccc5c(c4O)C(=O)C4=C(O)C[C@@H](C)[C@@H](OC(C)=O)[C@@]4(CO)O5)c(O)c3C(=O)C1=C(O)C[C@@H](C)[C@H]2OC(C)=O [Compound 5, dicerandrol B] | 8.14 ± 1.27 | less marked cytotoxic effect | 30.4 ± 1.1 | < 10 | – | – | – | – | – | – | – | – | – | – | 8.65 ± 0.66 | – | – | –
6 | CC(=O)OC[C@]12Oc3ccc(-c4ccc5c(c4O)C(=O)C4=C(O)C[C@@H](C)[C@@H](OC(C)=O)[C@@]4(COC(C)=O)O5)c(O)c3C(=O)C1=C(O)C[C@@H](C)[C@H]2OC(C)=O [Compound 6, dicerandrol C] | 33 ± 2.74 | – | > 50 | 44.1 ± 2.45 | – | 36.5 ± 3.32 | 42.6 ± 2.9 | – | – | – | – | – | – | – | – | weak anticancer activities | – | –
7 | CC(=O)O[C@@H]1[C@H](C)CC(O)=C2C(=O)c3c(ccc(-c4ccc(O)c5c4O[C@@]4(CO)C(=C(O)C[C@@H](C)[C@H]4OC(C)=O)C5=O)c3O)O[C@@]21CO [Compound 7, deacetylphomoxanthone B] | > 50 | no cytotoxic effect | 29.2 ± 1.19 | 14.4 ± 1.18 | excellent selective activities against HCT-116 and Calu-3 cell lines over other cancer cell lines | 4.14 ± 0.02 | 7.12 ± 0.7 | – | – | – | – | – | – | – | – | – | – | –
8 | CC(=O)OC[C@]12Oc3ccc(-c4ccc(O)c5c4O[C@@]4(CO)C(=C(O)C[C@@H](C)[C@H]4OC(C)=O)C5=O)c(O)c3C(=O)C1=C(O)C[C@@H](C)[C@H]2OC(C)=O [Compound 8, penexanthone A] | 16.1 ± 1.57 | less marked cytotoxic effect | 42.8 ± 3.58 | < 10 | – | < 10 | < 10 | – | – | – | – | – | – | – | 7.9 ± 0.58 | – | 6.44 ± 0.86 | 6.92 ± 0.38
9 | COc1cccc2c1C(=O)c1c(O)c3c(c(O)c1C2=O)C[C@@](O)(C(=O)CO)C[C@@H]3O[C@H]1C[C@H](N)[C@@H](O)[C@H](C)O1 [epirubicin, reference compound] | 0.48 ± 0.08 | – | 0.96 ± 0.01 | – | – | – | – | – | – | 1.03 ± 0.1 | 0.48 ± 0.029 | – | – | – | – | – | – | –

Reference: PMC3877896, “New Dimeric Members of the Phomoxanthone Family: Phomolactonexanthones A, B and Deacetylphomoxanthone C Isolated from the Fungus Phomopsis sp” (Marine Drugs, 2013)
